According to US20240352022A1, “GROUP OF IMB-C5 SERIES COMPOUNDS HAVING ANTI-CORONAVIRUS ACTIVITY AND APPLICATION THEREOF” (priority 2021, published 2024):

System: SARS-COV-2 Beta variant
Experiment: microbe, parasite or virus in culture
Format: cell-based, Human coronavirus SARS-COV-2 Beta variant
Conditions: for IC50: Severe acute respiratory syndrome coronavirus 2, Vero C1008

Compound	inhibitory activity against SARS-COV-2 (in words)	IC50 [µM]
COc1cccc(Cn2c(NCCO)nc3c2c(=O)n(C)c(=O)n3C)c1 [IMB-C5]	had an inhibitory activity against the SARS-COV-2 Beta variant	34.8
CCC(CC)COC(=O)[C@H](C)N[P@](=O)(OC[C@H]1O[C@@](C#N)(c2ccc3c(N)ncnn23)[C@H](O)[C@@H]1O)Oc1ccccc1 [Remdesivir, reference compound]		0.73
